In one experiment the target is 5HT1F (Homo sapiens, UniProt P30939). In words: pKi of test compounds, 5HT1F receptor. The class given is binding.
The next experiment addresses 5HT1E (Homo sapiens, UniProt P28566). In words: pKi of test compounds, 5HT1E receptor. The class given is binding.
For the next experiment, the target named is 5HT7rat (Rattus norvegicus, UniProt P32305). In words: pKi of test compounds, 5HT7 receptor. In kind it is binding.
A further experiment concerns the target T1, D4 receptor (Homo sapiens, UniProt P21917).
T1 sequence (P21917 1-419): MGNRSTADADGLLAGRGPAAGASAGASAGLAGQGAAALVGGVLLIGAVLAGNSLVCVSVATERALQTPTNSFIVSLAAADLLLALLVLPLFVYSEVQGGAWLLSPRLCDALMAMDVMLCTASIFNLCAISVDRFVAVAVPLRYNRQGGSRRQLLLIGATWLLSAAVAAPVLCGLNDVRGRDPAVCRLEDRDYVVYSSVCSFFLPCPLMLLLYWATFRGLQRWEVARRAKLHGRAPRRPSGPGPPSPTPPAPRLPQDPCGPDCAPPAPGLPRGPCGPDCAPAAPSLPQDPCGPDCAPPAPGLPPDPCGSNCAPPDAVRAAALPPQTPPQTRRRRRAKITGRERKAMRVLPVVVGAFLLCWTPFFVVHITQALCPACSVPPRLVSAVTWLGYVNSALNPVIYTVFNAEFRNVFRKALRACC
The experiment can be described thus: pKi of test compounds, D4 receptor. The class given is binding. The note with it: D4; read-out: pKi D4 (converted).

In a further experiment the target is D3 (Homo sapiens, UniProt P35462). The experiment can be described thus: pKi of test compounds, D3 receptor. In kind it is binding. The conditions noted are these: for Ki: read-out: pKi D3 (converted).
Sequence of D3 (P35462 whole entry): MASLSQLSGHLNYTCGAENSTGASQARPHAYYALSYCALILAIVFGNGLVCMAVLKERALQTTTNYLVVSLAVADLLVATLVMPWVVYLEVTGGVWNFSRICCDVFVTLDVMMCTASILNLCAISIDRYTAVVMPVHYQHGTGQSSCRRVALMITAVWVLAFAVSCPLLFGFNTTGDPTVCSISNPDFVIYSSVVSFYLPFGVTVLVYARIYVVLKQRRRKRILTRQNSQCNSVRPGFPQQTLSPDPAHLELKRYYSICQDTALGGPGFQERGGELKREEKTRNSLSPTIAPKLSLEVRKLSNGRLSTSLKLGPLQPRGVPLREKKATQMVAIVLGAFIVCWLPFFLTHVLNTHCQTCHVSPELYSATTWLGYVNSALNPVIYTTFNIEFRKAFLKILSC
The next experiment concerns the target T2, Alpha2C (Homo sapiens, UniProt P18825).
T2 sequence (P18825 1-462): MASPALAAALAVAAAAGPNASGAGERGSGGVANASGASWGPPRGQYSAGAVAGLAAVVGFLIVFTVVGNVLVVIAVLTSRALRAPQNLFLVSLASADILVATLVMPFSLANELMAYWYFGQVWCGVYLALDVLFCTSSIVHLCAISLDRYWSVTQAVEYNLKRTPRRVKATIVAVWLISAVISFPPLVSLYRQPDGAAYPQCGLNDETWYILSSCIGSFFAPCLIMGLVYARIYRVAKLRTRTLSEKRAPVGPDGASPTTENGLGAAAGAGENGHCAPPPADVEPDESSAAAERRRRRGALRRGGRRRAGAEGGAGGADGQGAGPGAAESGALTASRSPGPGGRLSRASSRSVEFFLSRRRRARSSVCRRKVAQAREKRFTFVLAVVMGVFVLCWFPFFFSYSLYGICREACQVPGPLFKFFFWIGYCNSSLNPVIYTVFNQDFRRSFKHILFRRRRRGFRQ
The experiment can be described thus: pKi of test compounds, adrenergic receptor Alpha2C. The class given is binding.

The target of a further experiment is 5HT1D (Homo sapiens, UniProt P28221). In words: pKi of test compounds, 5HT1D receptor. The class given is binding. The conditions noted are these: read-out: pKi 5HT1D (converted).
Sequence of 5HT1D (P28221 whole entry, species assumed): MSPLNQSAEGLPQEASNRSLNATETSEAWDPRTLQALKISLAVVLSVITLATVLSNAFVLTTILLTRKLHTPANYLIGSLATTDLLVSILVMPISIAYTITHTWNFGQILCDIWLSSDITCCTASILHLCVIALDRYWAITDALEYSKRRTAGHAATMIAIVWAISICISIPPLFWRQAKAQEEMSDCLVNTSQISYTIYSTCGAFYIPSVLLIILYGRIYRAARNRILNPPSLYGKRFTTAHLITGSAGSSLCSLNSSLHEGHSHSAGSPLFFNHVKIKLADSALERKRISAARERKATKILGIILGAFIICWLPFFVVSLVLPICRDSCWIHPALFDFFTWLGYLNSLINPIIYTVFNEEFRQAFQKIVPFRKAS
The target of the next experiment is 5-HT2A receptor (Homo sapiens, UniProt P28223). The experiment can be described thus: pKi of test compounds, 5-HT2A receptor. The class given is binding.
Sequence of 5-HT2A receptor (P28223 whole entry): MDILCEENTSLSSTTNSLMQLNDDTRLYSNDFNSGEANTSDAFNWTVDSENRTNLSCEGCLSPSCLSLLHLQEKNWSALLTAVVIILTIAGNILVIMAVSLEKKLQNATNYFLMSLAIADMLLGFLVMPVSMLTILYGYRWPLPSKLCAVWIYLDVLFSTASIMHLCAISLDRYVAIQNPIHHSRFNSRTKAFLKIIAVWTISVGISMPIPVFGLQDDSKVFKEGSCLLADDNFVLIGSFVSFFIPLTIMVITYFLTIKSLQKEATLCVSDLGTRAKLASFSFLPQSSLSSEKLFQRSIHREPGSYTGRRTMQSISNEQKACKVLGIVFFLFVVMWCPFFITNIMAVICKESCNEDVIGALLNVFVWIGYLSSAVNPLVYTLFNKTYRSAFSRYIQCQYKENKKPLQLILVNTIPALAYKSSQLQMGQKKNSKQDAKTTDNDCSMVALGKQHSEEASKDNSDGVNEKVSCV
In a further experiment the target is T3, Alpha2A (Homo sapiens, UniProt P08913).
T3 sequence (P08913 1-465): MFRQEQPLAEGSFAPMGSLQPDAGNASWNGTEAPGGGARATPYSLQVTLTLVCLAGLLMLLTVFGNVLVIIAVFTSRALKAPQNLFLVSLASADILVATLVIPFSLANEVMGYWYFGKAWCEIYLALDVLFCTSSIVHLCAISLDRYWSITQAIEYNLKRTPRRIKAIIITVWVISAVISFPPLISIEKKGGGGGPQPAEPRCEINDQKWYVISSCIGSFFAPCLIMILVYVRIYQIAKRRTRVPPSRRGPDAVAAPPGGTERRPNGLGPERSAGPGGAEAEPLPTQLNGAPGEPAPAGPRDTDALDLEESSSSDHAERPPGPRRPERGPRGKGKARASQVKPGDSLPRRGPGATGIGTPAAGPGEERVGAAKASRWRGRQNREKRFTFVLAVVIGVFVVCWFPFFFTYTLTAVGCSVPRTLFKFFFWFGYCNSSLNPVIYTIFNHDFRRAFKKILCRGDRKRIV
In words: pKi of test compounds, adrenergic receptor Alpha2A. In kind it is binding.

The target of another experiment is T4, 5HT1A (Homo sapiens, UniProt P08908).
T4 sequence (P08908 1-422): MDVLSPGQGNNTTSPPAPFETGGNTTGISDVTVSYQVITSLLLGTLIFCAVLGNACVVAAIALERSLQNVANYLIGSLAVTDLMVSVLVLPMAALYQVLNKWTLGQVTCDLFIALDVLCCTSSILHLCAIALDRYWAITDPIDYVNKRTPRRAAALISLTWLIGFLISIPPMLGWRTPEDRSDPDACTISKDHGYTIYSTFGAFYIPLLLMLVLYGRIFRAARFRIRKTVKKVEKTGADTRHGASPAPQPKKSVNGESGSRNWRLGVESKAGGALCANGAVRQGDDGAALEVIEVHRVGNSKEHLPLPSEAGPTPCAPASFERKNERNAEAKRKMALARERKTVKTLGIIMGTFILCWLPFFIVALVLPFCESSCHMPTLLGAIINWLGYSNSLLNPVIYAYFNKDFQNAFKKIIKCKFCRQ
The experiment can be described thus: pKi of test compounds, 5HT1A receptor. In kind it is binding.

For the next experiment, the target named is 5HT6rat (Rattus norvegicus, UniProt P31388). In words: pKi of test compounds, 5HT6 receptor. In kind it is binding. The conditions noted are these: rat.
Sequence of 5HT6rat (P31388 whole entry): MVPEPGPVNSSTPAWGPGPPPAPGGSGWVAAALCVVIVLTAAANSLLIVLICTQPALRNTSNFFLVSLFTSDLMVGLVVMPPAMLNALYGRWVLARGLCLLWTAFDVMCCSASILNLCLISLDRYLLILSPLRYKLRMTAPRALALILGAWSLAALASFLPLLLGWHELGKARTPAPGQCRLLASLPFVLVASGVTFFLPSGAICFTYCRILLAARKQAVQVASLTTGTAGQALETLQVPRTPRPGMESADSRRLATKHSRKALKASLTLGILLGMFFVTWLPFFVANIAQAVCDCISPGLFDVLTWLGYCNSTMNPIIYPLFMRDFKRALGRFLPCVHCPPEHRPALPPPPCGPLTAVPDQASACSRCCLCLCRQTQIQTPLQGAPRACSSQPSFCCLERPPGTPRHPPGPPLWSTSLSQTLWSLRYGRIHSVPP
The target in another experiment is T5, Alpha1A (Homo sapiens, UniProt P35348).
T5 sequence (P35348 1-466): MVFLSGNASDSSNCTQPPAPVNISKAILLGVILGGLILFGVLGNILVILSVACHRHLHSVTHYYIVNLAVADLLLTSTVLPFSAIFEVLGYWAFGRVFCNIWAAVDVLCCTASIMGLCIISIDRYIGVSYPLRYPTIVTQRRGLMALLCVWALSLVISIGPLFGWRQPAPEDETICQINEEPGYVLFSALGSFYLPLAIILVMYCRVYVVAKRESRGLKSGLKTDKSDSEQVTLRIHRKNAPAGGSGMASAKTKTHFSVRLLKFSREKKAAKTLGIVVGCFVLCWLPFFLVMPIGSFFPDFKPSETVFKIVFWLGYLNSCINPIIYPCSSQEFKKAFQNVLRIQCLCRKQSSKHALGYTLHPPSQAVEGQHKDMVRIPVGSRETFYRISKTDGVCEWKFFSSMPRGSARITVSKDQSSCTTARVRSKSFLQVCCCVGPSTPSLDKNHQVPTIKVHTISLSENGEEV
The experiment can be described thus: pKi of test compounds, adrenergic receptor Alpha1A. In kind it is binding.

Another experiment concerns the target 5HT1B (Homo sapiens, UniProt P28222). The experiment can be described thus: pKi of test compounds, 5HT1B receptor. The class given is binding.
The target in the next experiment is Beta1 (Homo sapiens, UniProt P08588). In words: pKi of test compounds, adrenergic receptor Beta1. The class given is binding.
Sequence of Beta1 (P08588 whole entry): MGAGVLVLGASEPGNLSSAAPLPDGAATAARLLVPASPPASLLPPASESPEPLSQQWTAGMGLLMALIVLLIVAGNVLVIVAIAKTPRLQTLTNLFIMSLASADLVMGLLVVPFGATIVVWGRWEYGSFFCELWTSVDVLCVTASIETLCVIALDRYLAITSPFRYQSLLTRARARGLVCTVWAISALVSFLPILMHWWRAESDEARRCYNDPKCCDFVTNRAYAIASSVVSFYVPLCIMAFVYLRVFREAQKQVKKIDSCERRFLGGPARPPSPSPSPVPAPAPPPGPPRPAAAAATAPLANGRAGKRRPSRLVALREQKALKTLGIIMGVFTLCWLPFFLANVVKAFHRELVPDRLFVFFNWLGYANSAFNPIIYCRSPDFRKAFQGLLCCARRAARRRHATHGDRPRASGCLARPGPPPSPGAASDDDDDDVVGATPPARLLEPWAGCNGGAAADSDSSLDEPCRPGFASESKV
The next experiment concerns the target D1 (Homo sapiens, UniProt P21728). In words: pKi of test compounds, D1 receptor. In kind it is binding.
A further experiment addresses Beta2 (Homo sapiens, UniProt P07550). The experiment can be described thus: pKi of test compounds, adrenergic receptor Beta2. In kind it is binding.
A further experiment concerns the target T6, 5HT2C (Homo sapiens, UniProt P28335).
T6 sequence (P28335 33-458): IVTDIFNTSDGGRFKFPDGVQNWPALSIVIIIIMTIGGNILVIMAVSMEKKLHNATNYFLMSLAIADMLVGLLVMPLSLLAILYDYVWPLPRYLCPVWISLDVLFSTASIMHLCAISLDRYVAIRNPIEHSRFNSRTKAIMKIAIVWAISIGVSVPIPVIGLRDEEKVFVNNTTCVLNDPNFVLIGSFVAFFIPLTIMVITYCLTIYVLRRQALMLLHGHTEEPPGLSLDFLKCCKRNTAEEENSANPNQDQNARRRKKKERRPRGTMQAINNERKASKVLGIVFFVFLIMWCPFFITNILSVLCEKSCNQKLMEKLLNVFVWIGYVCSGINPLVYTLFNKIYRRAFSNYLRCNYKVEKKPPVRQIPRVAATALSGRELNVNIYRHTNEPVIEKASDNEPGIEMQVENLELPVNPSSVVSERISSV
In words: pKi of test compounds, 5HT2C receptor. In kind it is binding.

The target in a further experiment is other 5HT receptors. In words: pKi towards other 5HT receptors. In kind it is binding. The conditions noted are these: 5-HT1A, 1B, 1D, 1E, 1F, 5-HT2B, 5-HT2C, 5-HT6 (rat), 5-HT7 (rat).
The target in another experiment is other Dopamine receptors. The experiment can be described thus: pKi towards other Dopamine receptors. In kind it is binding. The note with it: D1, D2 and D3.
A further experiment addresses 5HT2B (Homo sapiens, UniProt P41595). The experiment can be described thus: pKi of test compounds, 5HT2B receptor. The class given is binding.
The target of another experiment is D2 (Homo sapiens, UniProt P14416). In words: pKi of test compounds, D2 receptor. The class given is binding.
A further experiment addresses Alpha2B (Homo sapiens, UniProt P18089). The experiment can be described thus: pKi of test compounds, adrenergic receptor Alpha2B. The class given is binding.
For the next experiment, the system named is acute schizophrenia. The conditions noted are these: neuroleptic responsive inpatients with acute schizophrenia; cited from earlier work.
For experiment [1] the following is noted: metabolite from biotransformation in the liver; cited from earlier work.

Bounds are passed on as bounds.

The values that follow come from patent US20050119253A1, “Method of treating mental disorders using of D4 and 5-HT2A antagonists, inverse agonists or partial agonists” (priority 2003, published 2005).

Sequence of Beta2 (P07550 whole entry): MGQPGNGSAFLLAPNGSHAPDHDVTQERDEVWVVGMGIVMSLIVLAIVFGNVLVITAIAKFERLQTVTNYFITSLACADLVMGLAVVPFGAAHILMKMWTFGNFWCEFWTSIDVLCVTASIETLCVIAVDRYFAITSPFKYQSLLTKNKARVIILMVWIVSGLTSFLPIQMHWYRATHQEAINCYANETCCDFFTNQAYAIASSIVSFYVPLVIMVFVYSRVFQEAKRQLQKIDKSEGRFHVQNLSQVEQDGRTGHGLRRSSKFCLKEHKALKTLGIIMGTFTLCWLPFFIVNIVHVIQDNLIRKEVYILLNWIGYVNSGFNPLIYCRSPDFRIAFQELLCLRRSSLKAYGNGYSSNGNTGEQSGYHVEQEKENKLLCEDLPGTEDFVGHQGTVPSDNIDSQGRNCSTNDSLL
Sequence of 5HT1E (P28566 whole entry, species assumed): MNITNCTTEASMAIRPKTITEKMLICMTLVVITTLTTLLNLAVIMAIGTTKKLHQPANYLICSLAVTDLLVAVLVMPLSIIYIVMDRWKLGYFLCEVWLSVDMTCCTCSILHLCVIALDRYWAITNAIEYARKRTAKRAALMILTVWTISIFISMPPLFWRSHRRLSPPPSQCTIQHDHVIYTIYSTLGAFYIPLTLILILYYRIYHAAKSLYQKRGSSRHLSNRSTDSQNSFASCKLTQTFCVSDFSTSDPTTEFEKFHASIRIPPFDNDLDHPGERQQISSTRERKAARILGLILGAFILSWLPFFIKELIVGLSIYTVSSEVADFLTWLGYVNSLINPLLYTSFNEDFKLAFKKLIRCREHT
Sequence of Alpha2B (P18089 whole entry): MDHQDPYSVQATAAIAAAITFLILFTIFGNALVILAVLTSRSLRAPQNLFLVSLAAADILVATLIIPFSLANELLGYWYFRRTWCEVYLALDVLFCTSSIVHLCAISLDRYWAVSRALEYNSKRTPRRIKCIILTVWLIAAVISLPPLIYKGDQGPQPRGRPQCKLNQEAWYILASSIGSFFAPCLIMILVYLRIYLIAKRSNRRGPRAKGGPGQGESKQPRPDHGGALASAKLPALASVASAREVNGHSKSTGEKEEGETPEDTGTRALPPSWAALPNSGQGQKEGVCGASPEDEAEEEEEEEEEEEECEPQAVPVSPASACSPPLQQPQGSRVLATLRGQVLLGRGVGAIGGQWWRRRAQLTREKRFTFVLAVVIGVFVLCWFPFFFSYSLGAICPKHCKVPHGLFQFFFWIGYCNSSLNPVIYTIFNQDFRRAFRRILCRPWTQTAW
Sequence of 5HT1B (P28222 whole entry, species assumed): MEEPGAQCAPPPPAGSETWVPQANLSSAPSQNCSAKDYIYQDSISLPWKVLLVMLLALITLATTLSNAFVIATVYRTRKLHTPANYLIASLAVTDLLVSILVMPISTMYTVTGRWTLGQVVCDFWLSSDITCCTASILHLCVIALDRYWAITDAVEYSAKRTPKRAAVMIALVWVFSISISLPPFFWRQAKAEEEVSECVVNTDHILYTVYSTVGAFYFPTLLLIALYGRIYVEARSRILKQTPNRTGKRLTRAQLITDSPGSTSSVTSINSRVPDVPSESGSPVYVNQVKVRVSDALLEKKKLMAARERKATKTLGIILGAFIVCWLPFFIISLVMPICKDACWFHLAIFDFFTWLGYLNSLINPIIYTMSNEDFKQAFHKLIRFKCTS
Sequence of 5HT7rat (P32305 whole entry): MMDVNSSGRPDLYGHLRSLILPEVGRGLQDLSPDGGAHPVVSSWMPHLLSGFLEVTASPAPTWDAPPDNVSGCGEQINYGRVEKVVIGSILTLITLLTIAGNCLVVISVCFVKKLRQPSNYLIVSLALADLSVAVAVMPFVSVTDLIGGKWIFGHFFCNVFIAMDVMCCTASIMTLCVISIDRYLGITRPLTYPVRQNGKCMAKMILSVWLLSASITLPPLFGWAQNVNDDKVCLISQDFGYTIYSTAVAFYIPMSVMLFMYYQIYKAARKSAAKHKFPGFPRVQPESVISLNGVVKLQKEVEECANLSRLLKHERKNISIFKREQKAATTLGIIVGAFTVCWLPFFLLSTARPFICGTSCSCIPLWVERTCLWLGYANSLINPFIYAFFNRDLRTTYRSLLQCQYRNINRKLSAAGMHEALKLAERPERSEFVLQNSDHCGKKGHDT
Sequence of 5HT1F (P30939 whole entry, species assumed): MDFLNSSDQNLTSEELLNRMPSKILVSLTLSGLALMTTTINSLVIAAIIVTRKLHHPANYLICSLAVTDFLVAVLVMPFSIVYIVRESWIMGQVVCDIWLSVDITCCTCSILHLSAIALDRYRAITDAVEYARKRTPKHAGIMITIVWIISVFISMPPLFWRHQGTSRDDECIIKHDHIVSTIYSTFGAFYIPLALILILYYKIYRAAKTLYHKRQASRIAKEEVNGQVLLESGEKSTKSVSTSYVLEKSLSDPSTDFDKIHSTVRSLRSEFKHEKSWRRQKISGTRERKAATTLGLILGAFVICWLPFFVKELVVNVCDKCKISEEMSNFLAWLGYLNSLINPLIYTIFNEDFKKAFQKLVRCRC
Text for other Dopamine receptors: ‘Other Dopamine receptors’ are, for instance, D1, D2 and D3.
pKi values of test compounds for Dopamine receptors can be measured using commonly known assays.

Consider `CN1CCN(C2=Nc3cc(Cl)ccc3Nc3ccccc32)CC1` [Clozapine], for which the Ki on 5HT1F was 100 to 1000 nM.

Take `CN1CC2c3ccccc3Oc3ccc(Cl)cc3C2C1` (stereo not drawn) [ORG5222]: the Ki at 5HT1E was 10 to 100 nM; at 5HT7rat it was less than 1 nM; at D4 receptor, 1 to 10 nM; on D3 it was 1 to 10 nM; at Alpha2C, 10 to 100 nM; at 5HT1D, 1 to 10 nM. For the same compound, the Ki was less than 1 nM on 5-HT2A receptor; 1 to 10 nM on Alpha2A; 1 to 10 nM on 5HT1A; less than 1 nM on 5HT6rat (read-out: pKi 5HT6rat (converted)); less than 1 nM on Alpha1A; 1 to 10 nM on 5HT1B. The Ki at Beta1 was more than 1000 nM; on D1, 1 to 10 nM; at Beta2, more than 1000 nM; on 5HT2C it was less than 1 nM.

Consider `NC(=O)C1(N2CCCCC2)CCN(CCCC(=O)c2ccc(F)cc2)CC1` [Pipamperone, 1′-[3-(p-Fluorobenzoyl)propyl]-[1,4′-bipiperidine]-4′-carboxamide], for which the “pKi value towards other 5HT receptors” value at other 5HT receptors is “less than 8”. Besides, the Ki at 5HT1E was more than 1000 nM; on D4 receptor, 1 to 10 nM; at D3, 100 to 1000 nM; at 5HT1F, more than 1000 nM; at Alpha2C it was 100 to 1000 nM; at 5HT1D, 100 to 1000 nM. The Ki was 100 to 1000 nM on Alpha2A; more than 1000 nM at 5HT1A; 100 to 1000 nM at 5HT1B; more than 1000 nM on Beta1; more than 1000 nM on Beta2. For the same compound, on other Dopamine receptors, the “pKi value towards other Dopamine receptors” value is “less than 8”.

As for `O=C(CC1CCN(CCOc2cccc3c2OCCO3)C1)c1ccc(F)cc1` (stereo not drawn) [S16924], the “pKi 5HT7rat” value on 5HT7rat was 7-8. Moreover, at D3, the “pKi D3” value is reported as 7-8. In addition, the “pKi Alpha2C” value on Alpha2C is 6-7. The “pKi 5-HT2A” value on 5-HT2A receptor was more than 9. At 5HT2B, the “pKi 5HT2B” value is on record as 8-9. Moreover, the “pKi Alpha2A” value on Alpha2A was 6-7. Also, the “pKi 5HT1A” value on 5HT1A is recorded as 8-9. Moreover, the “pKi 5HT6rat” value at 5HT6rat is given as 7-8. Moreover, the “pKi D2” value at D2 is given as 7-8. For the same compound, the “pKi Alpha1A” value at Alpha1A is given as 8-9. In addition, on Beta1, the “pKi Beta1” value is listed as less than 6. For the same compound, at Beta2, the “pKi Beta2” value is listed as less than 6. For the same compound, the “pKi 5HT2C” value at 5HT2C was 7-8. For the same compound, the “pKi Alpha2B” value on Alpha2B is 7-8.

For `Fc1cccc2c1O[C@H]1CNC[C@@H]1O2` [Fluparoxan], the Ki was 1 to 10 nM at Alpha2C; 1 to 10 nM at Alpha2A; 100 to 1000 nM at 5HT1A; 100 to 1000 nM at Alpha1A; 1 to 10 nM on Alpha2B.

Turning to `Clc1ccc(N2CCN(Cc3c[nH]c4ncccc34)CC2)cc1` [L-745,870], in the experiment on acute schizophrenia, the antipsychotic efficacy entry is “ineffective as an antipsychotic”.

In the case of `Cc1nc2n(c(=O)c1CCN1CCC(c3noc4cc(F)ccc34)CC1)CCCC2O` (stereo not drawn) [9-hydroxyrisperidone], the “pharmacological activity and intensity relative to parent risperidone” value in experiment [1] was “of the same pharmacological activity and intensity as parent risperidone”.
